Experimental data as given in ChEMBL document CHEMBL1201862, “PubChem BioAssay data set” (2004).
Activity calls are given as the source filed them.

What was measured:
Cytochrome P450 3A4 = Cytochrome P450 3A4 (Homo sapiens, UniProt P08684);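 further: CYP3A4 tested as one member of a cytochrome P450 panel screen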
cells [1] = type: functional, cell-based
[2] = molecular target: T1, Heat shock factor protein 1 (Mus musculus, UniProt P38532); assay: inhibition of MG132-induced HSE-luciferase signal, confirmation, cell-based, NIH3T3, luminescence, dose retest (AID 2382); type: functional;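 further: NIH3T3 fibroblasts with HSF1-driven luciferase reporter stressed by proteasome inhibitor MG132; luminescence from HSF1-driven luciferase expression after 8 hours of MG132 stress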
T1 sequence (P38532 whole entry): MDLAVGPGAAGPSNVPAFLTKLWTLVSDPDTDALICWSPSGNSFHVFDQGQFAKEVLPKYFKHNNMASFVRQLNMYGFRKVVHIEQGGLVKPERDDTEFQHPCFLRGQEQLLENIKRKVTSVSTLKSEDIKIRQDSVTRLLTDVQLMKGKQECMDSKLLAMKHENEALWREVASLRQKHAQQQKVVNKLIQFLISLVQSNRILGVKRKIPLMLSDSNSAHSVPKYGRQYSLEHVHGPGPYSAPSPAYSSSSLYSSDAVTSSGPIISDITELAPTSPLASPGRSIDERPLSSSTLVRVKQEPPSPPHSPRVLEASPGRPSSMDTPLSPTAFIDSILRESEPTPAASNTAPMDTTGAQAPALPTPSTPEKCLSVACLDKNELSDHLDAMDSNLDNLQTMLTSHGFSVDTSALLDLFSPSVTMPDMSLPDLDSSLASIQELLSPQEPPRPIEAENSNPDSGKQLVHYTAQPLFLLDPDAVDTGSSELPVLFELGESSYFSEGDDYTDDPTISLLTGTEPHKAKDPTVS

cells [3] = type: functional, cell-based; remark: listed apart in the source
HEK293 = assay: inhibitors of LMP1-driven NF-kB reporter, dose response, cell-based, HEK293, luciferase, cherry-pick (AID 588343); type: functional; conditions: Homo sapiens
H4 = assay: Luminescence Cell-Based Dose Response HTS to Identify Activators of 5'UTR Stem-Loop Driven Prion Protein mRNA Translation in H4 Neuroglioblastoma Cells. [Related pubchem assays: 1829 (Project Summary), 1814 (Primary HTS)]; type: functional; conditions: Homo sapiens
[4] = Luminescence Cell-Based Dose Response HTS to Identify Activators of Luciferase Translation or Activity in H4 […] Cells. [Related pubchem assays: 1829 (Project Summary), 1814 (Primary HTS)]; type: functional
HeLa = assay: HeLa cell cytotoxicity, dose response, cytotoxicity control for MITF activator project, CellTiter-Glo luminescence, cherry-pick samples (AID 540259); type: functional, cell-based; conditions: Homo sapiens
[5] = molecular target: T2, Alkaline phosphatase, tissue-nonspecific isozyme (Homo sapiens, UniProt P05186); assay: human TNAP enzyme inhibitors, SAR follow-up, biochemical, luminescent, dose response (AID 1056)
T2 sequence (P05186 whole entry): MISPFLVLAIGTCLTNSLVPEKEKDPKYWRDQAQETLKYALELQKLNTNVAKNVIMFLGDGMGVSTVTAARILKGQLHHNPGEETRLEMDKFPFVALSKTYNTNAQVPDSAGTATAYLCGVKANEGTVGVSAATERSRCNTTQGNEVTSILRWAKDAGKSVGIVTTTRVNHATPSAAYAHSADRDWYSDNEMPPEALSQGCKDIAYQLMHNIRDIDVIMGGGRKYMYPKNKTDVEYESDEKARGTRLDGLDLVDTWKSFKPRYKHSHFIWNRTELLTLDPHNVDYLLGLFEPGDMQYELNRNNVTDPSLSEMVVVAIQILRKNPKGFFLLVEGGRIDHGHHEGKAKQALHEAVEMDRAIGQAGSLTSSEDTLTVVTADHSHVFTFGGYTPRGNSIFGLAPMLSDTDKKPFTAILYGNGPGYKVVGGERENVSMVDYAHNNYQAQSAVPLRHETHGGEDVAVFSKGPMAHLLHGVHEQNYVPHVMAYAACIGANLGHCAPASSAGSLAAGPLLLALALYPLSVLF

[6] = molecular target: Glyceraldehyde-3-phosphate dehydrogenase (Homo sapiens, UniProt P04406)
Sequence of Glyceraldehyde-3-phosphate dehydrogenase (P04406 whole entry): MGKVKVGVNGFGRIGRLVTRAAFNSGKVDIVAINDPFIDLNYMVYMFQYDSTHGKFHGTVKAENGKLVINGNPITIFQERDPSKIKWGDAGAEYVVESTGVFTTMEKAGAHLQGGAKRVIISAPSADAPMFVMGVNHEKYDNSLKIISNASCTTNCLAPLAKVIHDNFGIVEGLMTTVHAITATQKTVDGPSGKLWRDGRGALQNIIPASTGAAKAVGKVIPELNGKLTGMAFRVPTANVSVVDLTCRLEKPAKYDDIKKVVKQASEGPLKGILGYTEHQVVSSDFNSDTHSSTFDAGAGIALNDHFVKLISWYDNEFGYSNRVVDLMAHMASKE

Troponin, cardiac muscle = Troponin, cardiac muscle (Homo sapiens, UniProt P19429+P45379+P63316); assay: Fluorescence-based biochemical high throughput dose response assay for activators of the calcium sensitivity of cardiac Regulated Thin Filaments (RTF). [Related pubchem assays (depositor defined):AID493008, AID493018, AID504382, AID504383]; type: protein-complex assay
[7] = inhibitors of intracellular T. cruzi replication, confirmation, NIH3T3 host cells, beta-gal luminescence (AID 2044); type: functional, cell-based;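 further: intracellular parasites grown in NIH/3T3 mouse fibroblasts as host cells; luminescent beta-galactosidase reporter signal from transgenic T. cruzi replicating inside host cells; inhibitors lower the luminescence signal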
[8] = cytotoxicity toward NIH3T3 fibroblasts, dose response, counter-screen, cell-based, ATP luminescence, mouse fibroblasts (AID 2010); type: functional;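 further: cells exposed to compound for about 90 hours before reading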
[9] = molecular target: T3, Microphthalmia-associated transcription factor (Homo sapiens, UniProt O75030); assay: TRPM1 promoter luciferase signal decrease, dose response, MITF inhibitor project, cell-based, SK-MEL-5, cherry-picked, set 3 (AID 493073); type: functional
T3 sequence (O75030 whole entry): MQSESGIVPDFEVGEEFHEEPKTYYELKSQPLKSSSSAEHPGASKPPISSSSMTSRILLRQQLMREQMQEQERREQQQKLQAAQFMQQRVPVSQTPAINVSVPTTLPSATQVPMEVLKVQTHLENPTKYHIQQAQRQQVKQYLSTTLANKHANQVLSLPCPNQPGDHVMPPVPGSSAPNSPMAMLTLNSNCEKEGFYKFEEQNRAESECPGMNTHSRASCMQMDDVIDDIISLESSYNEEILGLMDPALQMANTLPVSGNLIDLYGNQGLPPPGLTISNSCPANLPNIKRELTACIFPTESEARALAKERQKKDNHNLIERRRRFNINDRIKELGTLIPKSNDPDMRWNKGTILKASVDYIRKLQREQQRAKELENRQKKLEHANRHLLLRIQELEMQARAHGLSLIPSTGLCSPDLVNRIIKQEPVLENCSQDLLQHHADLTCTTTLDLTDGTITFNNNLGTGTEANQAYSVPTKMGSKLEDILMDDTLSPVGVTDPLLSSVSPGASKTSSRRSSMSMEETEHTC

[10] = MC4R antagonists, dose response, counter-screen for LGR2 antagonist project, cell-based, plate reader, cherry pick (AID 743444); type: functional;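 further: transfected HEK 293 cells stimulated with alpha-MSH peptide; potency of inhibitors of the alpha-MSH evoked signal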
[11] = LGR2 antagonists, dose response, cell-based, HEK293, CRE-luciferase reporter, cherry pick, set 2 (AID 743343); type: functional;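 further: transfected cells were stimulated with diluted bursicon conditioned medium after compound addition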

Sequence of Cytochrome P450 3A4 (P08684 whole entry): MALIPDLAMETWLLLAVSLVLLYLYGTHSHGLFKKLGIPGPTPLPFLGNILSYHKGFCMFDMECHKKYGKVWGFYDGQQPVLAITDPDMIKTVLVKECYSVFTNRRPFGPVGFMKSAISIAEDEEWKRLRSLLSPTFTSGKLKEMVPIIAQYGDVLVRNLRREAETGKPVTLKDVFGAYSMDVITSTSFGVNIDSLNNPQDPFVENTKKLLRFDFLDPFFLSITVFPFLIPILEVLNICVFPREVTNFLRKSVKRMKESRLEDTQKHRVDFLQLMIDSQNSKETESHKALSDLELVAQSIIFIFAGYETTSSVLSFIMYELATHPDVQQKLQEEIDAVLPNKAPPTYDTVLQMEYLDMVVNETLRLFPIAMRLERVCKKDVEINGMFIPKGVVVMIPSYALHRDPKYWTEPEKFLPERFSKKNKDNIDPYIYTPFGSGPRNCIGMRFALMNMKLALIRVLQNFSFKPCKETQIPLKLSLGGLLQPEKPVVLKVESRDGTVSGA

## COC(=O)N1CCC2(CC1)CCN(c1ncccn1)CC2
Cytochrome P450 3A4
  AC50: inconclusive

## C[C@@H](C(=O)Nc1ccc2c(c1)OCCO2)n1c(=O)[nH]c2ccccc2c1=O
Cells [1]
  EC50: > 350 µM (not active)
[2]
  EC50: 0.377 µM (active)
Cells [3]
  EC50: > 350 µM (not active)
HEK293
  AC50: 6.08 µM (active)

## Cn1c(C(=O)NCCc2c[nH]c3ccccc23)cc2sccc21
H4
  EC50: 14.7 µM (active)
[4]
  EC50: 21.7 µM (active)
HeLa
  AC50: 239 µM (active)

## Cn1c2ccccc2c(=O)c2ccc(-c3ccc4c(c3)OCO4)cc21
HeLa
  AC50: 46.6 µM (active)

## Cc1ccc(-c2cc(C(=O)O)[nH]n2)cc1C
[5]
  IC50: 62.9 µM (active)
[6]
  IC50: > 100 µM (not active)

## Cc1ccccc1-n1nnnc1SCC(C)C
Troponin, cardiac muscle
  EC50: > 71.5 µM (inactive)

## CCN(CC)S(=O)(=O)c1cccc(C(=O)N/N=C/c2ccc([N+](=O)[O-])o2)c1
[7]
  EC50: 0.218 µM (active)
[8]
  EC50: 13.3 µM (active)
[9]
  AC50: 14.1 µM (active)

## COc1ccccc1-c1nnc(SCc2nc3ccccc3s2)n1C
Troponin, cardiac muscle
  EC50: > 71.5 µM (inactive)

## COc1cc(OC)cc(-c2oc(=O)c3cc(OC)c(OC)cc3c2C(F)(F)F)c1
[9]
  AC50: 12.8 µM (active)

## COc1ccc(-c2cc(C(=O)N3CCCC3)no2)cc1
[10]
  AC50: 5.22 µM (active)
HEK293
  AC50: 3.97 µM (active)
[11]
  AC50: 5.07 µM (active)
